Source: the NIST ThermoML archive (doi:10.1021/je200073x)

How the values were obtained:
[1] = molar heat capacity at constant pressure; conditions: 101.33 kPa, Liquid, Small sample (50 mg) DSC
[2] = 101.33 kPa, Liquid; for viscosity: Concentric cylinders viscometry; for electrical conductivity: Metler Toledo SevenEasy conductivity meter; for mass density: Vibrating tube method

CCCCCC[n+]1ccn(C)c1.FC(F)(F)C(F)(F)[P-](F)(F)(F)(C(F)(F)C(F)(F)F)C(F)(F)C(F)(F)F
Conditions	electrical conductivity [S/m]	mass density [kg/m3]	molar heat capacity at constant pressure [J/K/mol]	viscosity [mPa·s]
[1], 293.15 K	–	–	725.56	–
[1], 294.15 K	–	–	726.17	–
[1], 295.15 K	–	–	726.78	–
[1], 296.15 K	–	–	728.01	–
[1], 297.15 K	–	–	728.62	–
[1], 298.15 K	–	–	729.85	–
[1], 299.15 K	–	–	730.46	–
[1], 300.15 K	–	–	731.68	–
[1], 301.15 K	–	–	732.29	–
[1], 302.15 K	–	–	733.52	–
[1], 303.15 K	–	–	734.13	–
[1], 304.15 K	–	–	735.36	–
[1], 305.15 K	–	–	735.97	–
[1], 306.15 K	–	–	737.19	–
[1], 307.15 K	–	–	737.81	–
[1], 308.15 K	–	–	738.42	–
[1], 309.15 K	–	–	739.64	–
[1], 310.15 K	–	–	740.25	–
[1], 311.15 K	–	–	741.48	–
[1], 312.15 K	–	–	742.09	–
[1], 313.15 K	–	–	743.32	–
[1], 314.15 K	–	–	743.93	–
[1], 315.15 K	–	–	745.15	–
[1], 316.15 K	–	–	745.77	–
[1], 317.15 K	–	–	746.99	–
[1], 318.15 K	–	–	747.6	–
[1], 319.15 K	–	–	748.83	–
[1], 320.15 K	–	–	749.44	–
[1], 321.15 K	–	–	750.05	–
[1], 322.15 K	–	–	751.28	–
[1], 323.15 K	–	–	751.89	–
[1], 324.15 K	–	–	752.5	–
[1], 325.15 K	–	–	753.11	–
[1], 326.15 K	–	–	754.34	–
[1], 327.15 K	–	–	754.95	–
[1], 328.15 K	–	–	756.17	–
[1], 329.15 K	–	–	756.79	–
[1], 330.15 K	–	–	758.01	–
[1], 331.15 K	–	–	758.62	–
[1], 332.15 K	–	–	759.24	–
[1], 333.15 K	–	–	759.85	–
[1], 334.15 K	–	–	760.46	–
[1], 335.15 K	–	–	761.07	–
[1], 336.15 K	–	–	762.3	–
[1], 337.15 K	–	–	762.91	–
[1], 338.15 K	–	–	763.52	–
[1], 339.15 K	–	–	764.75	–
[1], 340.15 K	–	–	765.36	–
[1], 341.15 K	–	–	765.97	–
[1], 342.15 K	–	–	767.2	–
[1], 343.15 K	–	–	767.81	–
[2], 293.15 K	0.1303	1555.6	–	114.3
[2], 298.15 K	0.167	1550.1	–	88.2
[2], 303.15 K	0.209	1544.7	–	68.4
[2], 308.15 K	0.258	1539.3	–	54.1
[2], 313.15 K	0.313	1533.9	–	43.2
[2], 318.15 K	0.374	1528.7	–	35.1
[2], 323.15 K	0.44	1523.5	–	28.9
[2], 328.15 K	0.514	1518	–	24.4
[2], 333.15 K	0.593	1512.6	–	20.3
[2], 338.15 K	0.676	1507.2	–	17.3
[2], 343.15 K	0.769	1501.8	–	14.8
